Measurements reported in patent publication US20230172204A1 (BASF SE, priority 2020, published 2023).

What was measured:
[1] = test system: Phakopsora pachyrhizi (F129L); test: Protective control of soybean rust on soybeans (PHAKPA P6); type: in vivo; details: soybean rust F129L; for % PHAKPA (F129L) Disease level P6 at 4 ppm: protective P6, 4 ppm; for % PHAKPA (F129L) Disease level P6 at 16 ppm: protective P6, 16 ppm
[2] = test system: Phakopsora pachyrhizi (F129L); test: Protective control of soybean rust on soybeans (PHAKPA P2); type: in vivo; details: soybean rust F129L; for % PHAKPA (F129L) Disease level P2 at 4 ppm: protective P2, 4 ppm; for % PHAKPA (F129L) Disease level P2 at 16 ppm: protective P2, 16 ppm

SMILES | % PHAKPA (F129L) Disease level P6 at 4 ppm [1] | % PHAKPA (F129L) Disease level P6 at 16 ppm [1] | % PHAKPA (F129L) Disease level P2 at 4 ppm [2] | % PHAKPA (F129L) Disease level P2 at 16 ppm [2]
CO/N=C(/C(=O)OC)c1cccc(C)c1CO/N=C(\C)c1cc(F)c(F)cc1C(F)(F)F [compound 409] | 83% | 73% | 77% | 40%
CNC(=O)/C(=N/OC)c1cccc(C)c1CO/N=C(\C)c1cc(F)c(F)cc1C(F)(F)F [compound 410] | 35% | 1% | 9% | 0%
CNC(=O)/C(=N/OC)c1cccc(C)c1CO/N=C(\C)c1ccc(Cl)c(F)c1CC(F)(F)F [compound 412] | 40% | 6% | 47% | 6%
CNC(=O)/C(=N/OC)c1cccc(C)c1CO/N=C(\C)c1ccc(-c2ccccc2)cc1C(F)(F)F [compound 413] | 33% | 15% | 40% | 15%
CO/N=C(/C(=O)OC)c1cccc(C)c1CO/N=C(\C)c1ccc(-c2ccccc2)cc1C(F)(F)F [compound 414] | 53% | 15% | 53% | 9%
CNC(=O)/C(=N/OC)c1cccc(C)c1CO/N=C(\C)c1ccc(/C(C)=N\OC)cc1OC(F)(F)F [compound 415] | 67% | 11% | 47% | 5%
CO/N=C(/C(=O)OC)c1cccc(C)c1CO/N=C(\C)c1ccc(Cc2ccccc2)cc1OC(F)(F)F [compound 416] | 67% | 25% | 57% | 27%
CO/N=C(/C)c1ccc(/C(C)=N/OCc2c(C)cccc2/C(=N\OC)C(=O)OC)c(C(F)(F)F)c1 [compound 417] | 63% | 22% | 35% | 18%
CO/N=C(/C)c1ccc(/C(C)=N/OCc2c(C)cccc2/C(=N\OC)C(=O)OC)c(OC(F)(F)F)c1 [compound 418] | 73% | 57% | 70% | 33%
CNC(=O)/C(=N/OC)c1cccc(C)c1CO/N=C(\C)c1ccc(Cc2ccccc2)cc1OC(F)(F)F [compound 419] | 60% | 12% | 40% | 18%
CNC(=O)/C(=N/OC)c1cccc(C)c1CO/N=C(\C)c1ccc(/C(C)=N\OC)cc1C(F)(F)F [compound 420] | 12% | 1% | 8% | 0%
CO/N=C(/C(=O)OC)c1cccc(C)c1CO/N=C(\C)c1cccc(Cl)c1C(F)(F)F [compound 421] | 87% | 57% | 100% | 33%
CNC(=O)/C(=N/OC)c1cccc(C)c1CO/N=C(\C)c1cccc(Cl)c1C(F)(F)F [compound 422] | 32% | 2% | 30% | 0%
CO/N=C(/C(=O)OC)c1cccc(C)c1CO/N=C(\C)c1ccc(C#N)cc1C(F)(F)F [compound 423] | 93% | 53% | 100% | 57%
CNC(=O)/C(=N/OC)c1cccc(C)c1CO/N=C(\C)c1ccc(C#N)cc1C(F)(F)F [compound 424] | 97% | 50% | 100% | 27%
CO/N=C(/C(=O)OC)c1cccc(C)c1CO/N=C(\C)c1ccc(-c2ccc(F)cc2)cc1C(F)(F)F [compound 425] | 53% | 40% | 27% | 28%
CNC(=O)/C(=N/OC)c1cccc(C)c1CO/N=C(\C)c1ccc(-c2ccc(F)cc2)cc1C(F)(F)F [compound 426] | 27% | 10% | 7% | 1%
CO/N=C(/C(=O)OC)c1cccc(C)c1CO/N=C(\C)c1c(Cl)cc(Cl)cc1OC(F)(F)F [compound 427] | 60% | 47% | 100% | 90%

SMILES | % PHAKPA (F129L) Disease level P6 at 4 ppm [1] | % PHAKPA (F129L) Disease level P6 at 16 ppm [1] | % PHAKPA (F129L) Disease level P2 at 4 ppm [2] | % PHAKPA (F129L) Disease level P2 at 16 ppm [2]
CNC(=O)/C(=N/OC)c1cccc(C)c1CO/N=C(\C)c1c(Cl)cc(Cl)cc1OC(F)(F)F [compound 428] | 83% | 20% | 70% | 11%
CO/N=C(/C(=O)OC)c1cccc(C)c1CO/N=C(\C)c1ccc(Cl)c(Cl)c1C(F)(F)F [compound 429] | 67% | 43% | 83% | 50%
CO/C=C(/C(=O)OC)c1cccc(C)c1CO/N=C(\C)c1ccc(Cl)c(Cl)c1C(F)(F)F [compound 430] | 37% | 17% | 22% | 6%
CNC(=O)/C(=N/OC)c1cccc(C)c1CO/N=C(\C)c1ccc(Cl)c(Cl)c1C(F)(F)F [compound 431] | 40% | 12% | 32% | 7%
CO/C=C(/C(=O)OC)c1cccc(C)c1CO/N=C(\C)c1ccc(-c2ccc(F)cc2)cc1C(F)(F)F [compound 432] | 13% | 3% | 12% | 0%
CO/C=C(/C(=O)OC)c1cccc(C)c1CO/N=C(\C)c1ccc(-c2ccccc2)cc1OC(F)(F)F [compound 433] | 80% | 57% | 83% | 67%
CNC(=O)/C(=N/OC)c1cccc(C)c1CO/N=C(\C)c1ccc(-c2ccccc2)cc1OC(F)(F)F [compound 435] | 87% | 60% | 93% | 57%
CO/C=C(/C(=O)OC)c1cccc(C)c1CO/N=C(\C)c1c(Cl)cc(Cl)cc1OC(F)(F)F [compound 436] | 73% | 27% | 70% | 15%
CO/C=C(/C(=O)OC)c1cccc(C)c1CO/N=C(\C)c1ccccc1CC(F)(F)F [compound 437] | 8% | 0% | 2% | 0%
CNC(=O)/C(=N/OC)c1cccc(C)c1CO/N=C(\C)c1c(Cl)ccc(F)c1OC(F)(F)F [compound 440] | 73% | 23% | 93% | 23%
CNC(=O)/C(=N/OC)c1cccc(C)c1CO/N=C(\C)c1c(Cl)ccc(Cl)c1OC(F)(F)F [compound 441] | 97% | 50% | 100% | 43%
CO/C=C(/C(=O)OC)c1cccc(C)c1CO/N=C(\C)c1c(Cl)ccc(F)c1OC(F)(F)F [compound 442] | 80% | 77% | 100% | 93%
CO/C=C(/C(=O)OC)c1cccc(C)c1CO/N=C(\C)c1c(Cl)ccc(Cl)c1OC(F)(F)F [compound 444] | 83% | 53% | 100% | 47%
CO/C=C(/C(=O)OC)c1cccc(C)c1CO/N=C(\C)c1ccc(Br)cc1C(F)(F)F [compound 445] | 30% | 2% | 15% | 1%
CO/C=C(/C(=O)OC)c1cccc(C)c1CO/N=C(\C)c1ccc(C)cc1C(F)(F)F [compound 446] | 6% | 0% | 2% | 0%
CO/N=C(/C(=O)OC)c1cccc(C)c1CO/N=C(\C)c1ccc(F)c(F)c1OC(F)(F)F [compound 447] | 33% | 1% | 7% | 0%
CNC(=O)/C(=N/OC)c1cccc(C)c1CO/N=C(\C)c1ccc(Cl)c(F)c1OC(F)(F)F [compound 449] | 57% | 9% | 33% | 10%
